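GI50 = concentration required for 50% inhibition of growth. TGI: concentration producing complete growth inhibition.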
Key:
Test in all cases: growth of human tumour cells (NCI), 384-well format
ACHN renal = tested on: ACHN renal
UO-31 renal = tested on: UO-31 renal
HCT-15 colon = tested on: HCT-15 colon
MDA-MB-231 breast = tested on: MDA-MB-231 breast
OVCAR-3 ovarian = tested on: OVCAR-3 ovarian
U251 glioblastoma = tested on: U251 glioblastoma
NCI/ADR-RES ovarian = tested on: NCI/ADR-RES ovarian
COLO 205 colon = tested on: COLO 205 colon
OVCAR-8 ovarian = tested on: OVCAR-8 ovarian
UACC-257 melanoma = tested on: UACC-257 melanoma
786-0 renal = tested on: 786-0 renal
HCT-116 colon = tested on: HCT-116 colon
UACC-62 melanoma = tested on: UACC-62 melanoma
HL-60(TB) leukemia = tested on: HL-60(TB) leukemia
NCI-H322M lung = tested on: NCI-H322M lung
M14 melanoma = tested on: M14 melanoma
BT-549 breast = tested on: BT-549 breast
SF-539 CNS = tested on: SF-539 CNS
OVCAR-5 ovarian = tested on: OVCAR-5 ovarian
MALME-3M melanoma = tested on: MALME-3M melanoma
OVCAR-4 ovarian = tested on: OVCAR-4 ovarian
HOP-62 NSCLC = tested on: HOP-62 NSCLC
LOX IMVI melanoma = tested on: LOX IMVI melanoma
NCI-H460 NSCLC = tested on: NCI-H460 NSCLC
SK-MEL-2 melanoma = tested on: SK-MEL-2 melanoma
SN12C renal = tested on: SN12C renal
EKVX NSCLC = tested on: EKVX NSCLC
NCI-H522 lung = tested on: NCI-H522 lung
HOP-92 NSCLC = tested on: HOP-92 NSCLC
DU-145 prostate = tested on: DU-145 prostate
SF-295 CNS = tested on: SF-295 CNS
SK-MEL-28 melanoma = tested on: SK-MEL-28 melanoma
CAKI-1 renal = tested on: CAKI-1 renal
RXF 393 renal = tested on: RXF 393 renal
MDA-MB-435 melanoma = tested on: MDA-MB-435 melanoma
KM12 colon = tested on: KM12 colon
MOLT-4 leukemia = tested on: MOLT-4 leukemia
NCI-H226 lung = tested on: NCI-H226 lung
HCC-2998 colon = tested on: HCC-2998 colon
NCI-H23 lung = tested on: NCI-H23 lung
CCRF-CEM leukemia = tested on: CCRF-CEM leukemia
SK-MEL-5 melanoma = tested on: SK-MEL-5 melanoma
K-562 leukemia = tested on: K-562 leukemia
SF-268 CNS = tested on: SF-268 CNS
SW-620 colon = tested on: SW-620 colon
A549 NSCLC = tested on: A549 NSCLC
PC-3 prostate = tested on: PC-3 prostate

`Cc1ccc2c(Nc3cccc(Cl)c3F)ncc(NC(=O)c3csc4c(N)ncnc34)c2c1` was tested, and the GI50 (ACHN renal) was 12.7 µM, the TGI (ACHN renal) was > 100 µM and the GI50 (UO-31 renal) was 0.258 µM. The TGI (UO-31 renal) was > 100 µM, the GI50 (HCT-15 colon) was 26.3 µM and the TGI (HCT-15 colon) was > 100 µM. It also gave a GI50 (MDA-MB-231 breast) of 0.0195 µM, a TGI (MDA-MB-231 breast) of 16.3 µM and a GI50 (OVCAR-3 ovarian) of 22.2 µM. For the same compound, the TGI (OVCAR-3 ovarian) was 84.7 µM, the GI50 (U251 glioblastoma) was 22.3 µM and the TGI (U251 glioblastoma) was > 100 µM. The GI50 (NCI/ADR-RES ovarian) was 19.7 µM, the TGI (NCI/ADR-RES ovarian) was > 100 µM and the GI50 (COLO 205 colon) was 0.0242 µM. For the same compound, the TGI (COLO 205 colon) was 19.3 µM, the GI50 (OVCAR-8 ovarian) was 13.2 µM and the TGI (OVCAR-8 ovarian) was 43.1 µM. The GI50 (UACC-257 melanoma) was 0.0668 µM, the TGI (UACC-257 melanoma) was 0.569 µM and the GI50 ([…]-0 renal) was 22.2 µM. For the same compound, the TGI (786-0 renal) was > 100 µM, the GI50 (HCT-116 colon) was 0.162 µM and the TGI (HCT-116 colon) was 19.8 µM. It also gave a GI50 (UACC-62 melanoma) of 0.0251 µM, a TGI (UACC-62 melanoma) of 0.209 µM and a GI50 (HL-60(TB) leukemia) of 0.0159 µM. For the same compound, the TGI (HL-60(TB) leukemia) was 12.8 µM, the GI50 (NCI-H322M lung) was 17.4 µM and the TGI (NCI-H322M lung) was > 100 µM. For the same compound, the GI50 (M14 melanoma) was 0.0224 µM, the TGI (M14 melanoma) was 0.186 µM and the GI50 (BT-549 breast) was 22.8 µM. For the same compound, the TGI (BT-549 breast) was > 100 µM, the GI50 (SF-539 CNS) was 29.1 µM and the TGI (SF-539 CNS) was > 100 µM. The GI50 (OVCAR-5 ovarian) was 0.178 µM, the TGI (OVCAR-5 ovarian) was > 100 µM and the GI50 (MALME-3M melanoma) was 0.0124 µM. For the same compound, the TGI (MALME-3M melanoma) was 0.0436 µM, the GI50 (OVCAR-4 ovarian) was 44.6 µM and the TGI (OVCAR-4 ovarian) was > 100 µM. For the same compound, the GI50 (HOP-62 NSCLC) was 11.5 µM, the TGI (HOP-62 NSCLC) was > 100 µM and the GI50 (LOX IMVI melanoma) was 0.0418 µM. The TGI (LOX IMVI melanoma) was 1.18 µM, the GI50 (NCI-H460 NSCLC) was 13 µM and the TGI (NCI-H460 NSCLC) was > 100 µM. It also gave a GI50 (SK-MEL-2 melanoma) of 0.0346 µM, a TGI (SK-MEL-2 melanoma) of 0.148 µM and a GI50 (SN12C renal) of 8.16 µM. The TGI (SN12C renal) was > 100 µM, the GI50 (EKVX NSCLC) was 10.8 µM and the TGI (EKVX NSCLC) was > 100 µM. The GI50 (NCI-H522 lung) was 13.1 µM, the TGI (NCI-H522 lung) was 59 µM and the GI50 (HOP-92 NSCLC) was 0.542 µM. For the same compound, the TGI (HOP-92 NSCLC) was 7.97 µM, the GI50 (DU-145 prostate) was 22 µM and the TGI (DU-145 prostate) was > 100 µM. For the same compound, the GI50 (SF-295 CNS) was 93.7 µM, the TGI (SF-295 CNS) was > 100 µM and the GI50 (SK-MEL-28 melanoma) was 0.0179 µM. For the same compound, the TGI (SK-MEL-28 melanoma) was 0.0923 µM, the GI50 (CAKI-1 renal) was 0.577 µM and the TGI (CAKI-1 renal) was > 100 µM. It also gave a GI50 (RXF 393 renal) of 0.968 µM, a TGI (RXF 393 renal) of 95.7 µM and a GI50 (MDA-MB-435 melanoma) of 0.0481 µM. The TGI (MDA-MB-435 melanoma) was 55 µM, the GI50 (KM12 colon) was 0.54 µM and the TGI (KM12 colon) was 99.4 µM. For the same compound, the GI50 (MOLT-4 leukemia) was 21.8 µM, the TGI (MOLT-4 leukemia) was > 100 µM and the GI50 (NCI-H226 lung) was 0.978 µM. For the same compound, the TGI (NCI-H226 lung) was > 100 µM, the GI50 (HCC-2998 colon) was 0.115 µM and the TGI (HCC-2998 colon) was 0.537 µM. For the same compound, the GI50 (NCI-H23 lung) was 0.0761 µM, the TGI (NCI-H23 lung) was 4.46 µM and the GI50 (CCRF-CEM leukemia) was 15 µM. It also gave a TGI (CCRF-CEM leukemia) of 34.5 µM, a GI50 (SK-MEL-5 melanoma) of 0.0518 µM and a TGI (SK-MEL-5 melanoma) of 23.1 µM. For the same compound, the GI50 (K-562 leukemia) was 0.592 µM, the TGI (K-562 leukemia) was > 100 µM and the GI50 (SF-268 CNS) was 21.9 µM. For the same compound, the TGI (SF-268 CNS) was 73.7 µM, the GI50 (SW-620 colon) was 0.721 µM and the TGI (SW-620 colon) was > 100 µM. The GI50 (A549 NSCLC) was 17.5 µM, the TGI (A549 NSCLC) was > 100 µM and the GI50 (PC-3 prostate) was 57.3 µM. For the same compound, the TGI (PC-3 prostate) was > 100 µM.
